Data: patent US11702419B2, “Heterocyclic compound and use thereof” (Takeda Pharmaceutical Company Limited, priority 2018, dated 2023)

What follows are compounds tested against T1, NMDA receptor composed of four subunits consisting of two sets of heterodimers of NR1 and NR2B (human GRIN1 and GRIN2B-expressing HEK293 cells) (Homo sapiens, UniProt Q13224) (assay: NR2B Ca2+ influx assay). Conditions: 10 μM compound, glutamic acid/glycine-induced Ca2+ influx, FLIPR, read-out: inhibitory rate (10 μM compound concentration).
T1 construct: host or cells: HEK293 (tetracycline-inducible expression)
T1 sequence (Q13224 27-1484, other chains not shown): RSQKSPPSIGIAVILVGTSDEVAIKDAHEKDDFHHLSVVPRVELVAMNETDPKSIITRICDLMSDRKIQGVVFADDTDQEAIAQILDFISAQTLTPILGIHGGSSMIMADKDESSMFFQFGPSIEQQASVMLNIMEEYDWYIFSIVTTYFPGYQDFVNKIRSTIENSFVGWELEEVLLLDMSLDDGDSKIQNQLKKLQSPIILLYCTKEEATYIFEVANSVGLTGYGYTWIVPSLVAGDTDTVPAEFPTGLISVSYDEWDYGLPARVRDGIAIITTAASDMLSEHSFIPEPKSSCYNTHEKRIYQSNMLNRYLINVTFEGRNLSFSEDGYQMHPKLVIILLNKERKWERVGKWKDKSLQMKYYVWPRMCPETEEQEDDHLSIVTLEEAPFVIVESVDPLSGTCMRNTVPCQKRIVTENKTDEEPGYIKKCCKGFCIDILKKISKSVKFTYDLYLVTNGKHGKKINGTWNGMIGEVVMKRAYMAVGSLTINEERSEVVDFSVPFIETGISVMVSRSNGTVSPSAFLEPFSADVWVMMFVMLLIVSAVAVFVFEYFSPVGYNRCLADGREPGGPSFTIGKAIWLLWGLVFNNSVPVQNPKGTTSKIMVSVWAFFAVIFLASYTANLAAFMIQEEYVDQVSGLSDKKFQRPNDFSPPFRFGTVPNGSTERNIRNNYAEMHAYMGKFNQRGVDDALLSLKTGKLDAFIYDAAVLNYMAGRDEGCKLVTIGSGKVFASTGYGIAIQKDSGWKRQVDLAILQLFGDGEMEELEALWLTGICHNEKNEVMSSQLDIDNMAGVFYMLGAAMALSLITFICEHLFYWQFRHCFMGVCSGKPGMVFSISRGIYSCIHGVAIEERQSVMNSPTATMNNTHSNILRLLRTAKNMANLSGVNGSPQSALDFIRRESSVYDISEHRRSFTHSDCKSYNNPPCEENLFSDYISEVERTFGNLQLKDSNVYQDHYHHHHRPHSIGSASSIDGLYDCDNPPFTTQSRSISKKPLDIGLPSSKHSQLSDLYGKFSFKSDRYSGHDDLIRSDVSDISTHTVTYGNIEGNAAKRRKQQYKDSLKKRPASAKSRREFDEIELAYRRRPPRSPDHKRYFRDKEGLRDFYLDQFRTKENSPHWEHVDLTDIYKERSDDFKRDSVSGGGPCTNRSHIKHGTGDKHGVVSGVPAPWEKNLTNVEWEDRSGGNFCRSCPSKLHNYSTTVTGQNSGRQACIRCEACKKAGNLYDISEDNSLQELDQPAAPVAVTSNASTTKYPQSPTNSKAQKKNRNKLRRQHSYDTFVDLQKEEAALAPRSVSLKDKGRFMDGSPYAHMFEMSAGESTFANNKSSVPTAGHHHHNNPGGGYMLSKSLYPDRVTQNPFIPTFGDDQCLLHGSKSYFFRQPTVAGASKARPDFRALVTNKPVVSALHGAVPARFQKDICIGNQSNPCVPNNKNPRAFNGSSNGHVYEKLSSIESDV
Assay type: cell-based
Method: In order to confirm an “antagonistic action on an NMDA receptor containing the NR2B subunit” which the compound of the present invention has, inhibitory effect on the NMDA receptor activation was evaluated using “NMDA receptor composed of four subunits consisting of two sets of heterodimers of NR1 and NR2B”-expressing human fetal renal cells, specifically human glutamate ionotropic receptor NMDA type subunit 1 (GRIN1) and human glutamate ionotropic receptor NMDA type subunit 2B (GRIN2B)-expressing HEK293 cells.
As an index of the NMDA receptor activation, intracellular calcium ion (Ca^2+) influx caused by bonding of glycine and glutamate to NR1 and NR2B respectively was used. HEK293 cells were purchased from ChanTest. The cells were cultured in a DMEM/F-12 (COSMO BIO, 10-092-CM) medium containing 10% FBS (fetal bovine serum, AusGene), 100 units/mL penicillin, 100 μg/mL streptomycin, 500 μg/mL neomycin, 100 μg/mL Zeocin and 5 μg/mL Blasticidin at 37° C., 5% CO2. The cells were detached from flask with trypsin the day before the assay, suspended in a seeding medium (DMEM (Invitrogen, 31053) containing 10% FBS, 100 units/mL penicillin and 100 μg/mL streptomycin) at 8×10^5 cells/mL, seeded by 25 μL per well in a 384-well plate (Falcon, 356663) at 20000 cells/well, and cultured overnight in an incubator. On the day of the assay, tetracycline (Wako Pure Chemical Industries, 209-16561) was diluted with the seeding medium at 2 μg/mL, and the dilution was added at 25 μL/well to the plate seeded with the cells, and the cells were cultured for 2 hr in an incubator. Thereafter, the medium was removed, and the cells were washed with 50 μL/well of assay buffer (137 mM NaCl, 4 mM KCl, 1.8 mM CaCl2, 10 mM HEPES (pH 7.2), 10 mM Glucose, and 0.1% BSA). Then, a loading buffer (assay buffer containing 2.5 μM Fluo-4AM, 2 mM Amaranth and 1 mM Tartrazine) was added thereto at 25 μL/well, and loading was performed in the incubator for 30 min, and then at room temperature for 15 min. The test compound was diluted with the above-mentioned assay buffer so as to adjust the concentration to 30 μM, the obtained solution (25 μL) was added thereto (the final concentration 10 μM), and the cells were stood for 15 min at room temperature. Using FLIPR (Molecular Devices), 25 μL of an assay buffer containing 30 μM glutamic acid and 30 μM glycine was added thereto, and the fluorescence signal was measured every 3 seconds for 5 min. The relative activity value (inhibitory rate) was calculated when the cumulative total value of the fluorescence value of a well added with a buffer free of glutamic acid and glycine, relative to the cumulative total value of the fluorescence value of each well are regarded as 100% inhibition. The obtained value was evaluated as an inhibitory activity.

For `Cc1cnn2nnc(CNC(=O)c3cnc(OC(F)F)c(Cl)c3)c2c1` [Example 51, 5-chloro-6-(difluoromethoxy)-N-((5-methyl[1,2,3]triazolo[1,5-b]pyridazin-3-yl)methyl)nicotinamide], which inhibition at 10 µM is on record?
Its inhibition at 10 µM is 97%.

How did the inhibition at 10 µM turn out when `O=C(NCc1nnn2ccccc12)c1ccc(OC(F)(F)F)cc1` [Example 69, N-([1,2,3]triazolo[1,5-a]pyridin-3-ylmethyl)-4-(trifluoromethoxy)benzamide] was run?
The inhibition at 10 µM was 92%.

How did the inhibition at 10 µM turn out when `Cc1nn2ncc(CNC(=O)c3cnc(OC(F)F)c(Cl)c3)c2n1C` [Example 72, 5-chloro-6-(difluoromethoxy)-N-[(1,2-dimethyl-1H-pyrazolo[1,5-b][1,2,4]triazol-7-yl)methyl]pyridine-3-carboxamide] was run?
Its inhibition at 10 µM is 95%.

`Cc1ccnn2nnc(CNC(=O)c3ccc(OC(F)(F)F)c(F)c3)c12` [Example 52, 3-fluoro-N-((4-methyl[1,2,3]triazolo[1,5-b]pyridazin-3-yl)methyl)-4-(trifluoromethoxy)benzamide] was tested. Which inhibition at 10 µM did it give?
The inhibition at 10 µM was 95%.

Which inhibition at 10 µM does the source give for `Cc1nn2cnccc2c1CNC(=O)c1cnc(OC(F)F)c(F)c1` [Example 55, 6-(difluoromethoxy)-5-fluoro-N-((2-methylpyrazolo[1,5-c]pyrimidin-3-yl)methyl)nicotinamide] here?
The inhibition at 10 µM was 84%.

Which inhibition at 10 µM does the source give for `Cn1ccn2ncc(CNC(=O)c3ccc(OC4CC4)cc3)c12` [Example 60, 4-(cyclopropyloxy)-N-((1-methyl-1H-imidazo[1,2-b]pyrazol-7-yl)methyl)benzamide] here?
The inhibition at 10 µM was 88%.

For `Cn1ccn2ncc(CNC(=O)c3ccc(C(F)(F)F)s3)c12` [Example 65, N-((1-methyl-1H-imidazo[1,2-b]pyrazol-7-yl)methyl)-5 (trifluoromethyl)thiophene-2-carboxamide], which inhibition at 10 µM is on record?
Its inhibition at 10 µM is 96%.

For `CCc1nn2ncccc2c1CNC(=O)c1ccc(OC(F)F)c(F)c1` [Example 27, 4-(difluoromethoxy)-N-((2-ethylpyrazolo[1,5-b]pyridazin-3-yl)methyl)-3-fluorobenzamide], which inhibition at 10 µM is on record?
Its inhibition at 10 µM is 92%.

Which inhibition at 10 µM does the source give for `Cc1ccnn2ncc(CNC(=O)c3ccc(OC(F)F)c(F)c3)c12` [Example 36, 4-(difluoromethoxy)-3-fluoro-N-((4-methylpyrazolo[1,5-b]pyridazin-3-yl)methyl)benzamide] here?
The inhibition at 10 µM was 97%.

Which inhibition at 10 µM does the source give for `O=C(NCc1c(C(F)F)nn2ncccc12)c1cnc(OC(F)F)c(F)c1` [Example 43, 6-(difluoromethoxy)-N-((2-(difluoromethyl)pyrazolo[1,5-b]pyridazin-3-yl)methyl)-5-fluoronicotinamide] here?
Its inhibition at 10 µM is 95%.

For `O=C(NCc1nnn2ccccc12)c1ccc(C(F)(F)F)c(F)c1` [Example 68, 3-fluoro-N-([1,2,3]triazolo[1,5-a]pyridin-3-ylmethyl)-4-(trifluoromethyl)benzamide], which inhibition at 10 µM is on record?
The inhibition at 10 µM was 83%.

For `Cn1ccn2ncc(CNC(=O)c3ccc(C(F)(F)F)c(F)c3)c12` [Example 67, 3-fluoro-N-((1-methyl-1H-imidazo[1,2-b]pyrazol-7-yl)methyl)-4-(trifluoromethyl)benzamide], which inhibition at 10 µM is on record?
Its inhibition at 10 µM is 98%.

For `O=C(NCc1cnn2ncccc12)c1ccc(OC(F)F)c(Cl)c1` [Example 7, 3-chloro-4-(difluoromethoxy)-N-(pyrazolo[1,5-b]pyridazin-3-ylmethyl)benzamide], which inhibition at 10 µM is on record?
Its inhibition at 10 µM is 98%.

For `Cc1nn2ccn(C)c2c1CNC(=O)c1cnc(OC(F)F)c(F)c1` [Example 73, 6-(difluoromethoxy)-N-[(1,6-dimethyl-1H-imidazo[1,2-b]pyrazol-7-yl)methyl]-5-fluoropyridine-3-carboxamide], which inhibition at 10 µM is on record?
The inhibition at 10 µM was 93%.

`Cc1nn2ncc(CNC(=O)c3ccc(OC(F)(F)F)c(F)c3)c2n1CC(F)F` [Example 78, N-{[1-(2,2-difluoroethyl)-2-methyl-1H-pyrazolo[1,5-b][1,2,4]triazol-7-yl]methyl}-3-fluoro-4-(trifluoromethoxy)benzamide] was tested. Which inhibition at 10 µM did it give?
The inhibition at 10 µM was 81%.

How did the inhibition at 10 µM turn out when `O=C(NCc1nnn2ncccc12)c1cnc(OC(F)F)c(F)c1` [Example 23, 6-(difluoromethoxy)-5-fluoro-N-([1,2,3]triazolo[1,5-b]pyridazin-3-ylmethyl)nicotinamide] was run?
The inhibition at 10 µM was 95%.

`Cc1cnn2ncc(CNC(=O)c3ccc(OC(F)F)c(F)c3)c2c1` [Example 38, 4-(difluoromethoxy)-3-fluoro-N-((5-methylpyrazolo[1,5-b]pyridazin-3-yl)methyl)benzamide] was tested. Which inhibition at 10 µM did it give?
The inhibition at 10 µM was 98%.
